In the supplement of paper PMC10307832:

Columns and labels:
Test in all cases: relative viability (nuclei count vs DMSO), 5 days (fraction); higher = more cells survive
ABC-1 = system: ABC-1
How it was run: (§1)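 Lung cancer cell lines were seeded in 1536-well plates and dosed by pin tool the next day, with either a single drug or a fixed anchor-drug dose combined with five library-drug doses (not always all listed) spaced in √10 steps. Five days later, one step fixed the cells and stained their nuclei (final 0.05% Triton X-100, 1% formaldehyde, 1 ug/ml Hoechst), and nuclei were counted on 4× images. Relative viability is the nuclei count in treated wells divided by the count in vehicle wells, and each value is the median of duplicate plates.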

201T = system: 201T
How it was run: as §1

NCI-H1437 = system: NCI-H1437
How it was run: as §1

CAL-12T = system: CAL-12T
How it was run: as §1

SW 900 = system: SW 900
How it was run: as §1

NCI-H727 = system: NCI-H727
How it was run: as §1

NCI-H460 = system: NCI-H460
How it was run: as §1

NCI-H1650 = system: NCI-H1650
How it was run: as §1

NCI-H2170 = system: NCI-H2170
How it was run: as §1

HARA = system: HARA
How it was run: as §1

NCI-H2009 = system: NCI-H2009
How it was run: as §1

NCI-H3122 = system: NCI-H3122
How it was run: as §1

NCI-H1666 = system: NCI-H1666
How it was run: as §1

EKVX = system: EKVX
How it was run: as §1

HCC-366 = system: HCC-366
How it was run: as §1

COR-L 105 = system: COR-L 105
How it was run: as §1

LK-2 = system: LK-2
How it was run: as §1

BEN = system: BEN
How it was run: as §1

LOU-NH91 = system: LOU-NH91
How it was run: as §1

NCI-H441 = system: NCI-H441
How it was run: as §1

PC-14 = system: PC-14
How it was run: as §1

NCI-H661 = system: NCI-H661
How it was run: as §1

## O=c1cc(-c2cccc3c2Sc2ccccc2S3)oc(N2CCOCC2)c1 + Cc1nc(Nc2ncc(C(=O)Nc3c(C)cccc3Cl)s2)cc(N2CCN(CCO)CC2)n1 [Dasatinib] (partner 0.075 µM)
ABC-1; first compound 0.08 µM
  relative viability: 0.604
ABC-1; first compound 0.253 µM
  relative viability: 0.651
ABC-1; first compound 0.8 µM
  relative viability: 0.531
ABC-1; first compound 2.53 µM
  relative viability: 0.492
ABC-1; first compound 8 µM
  relative viability: 0.653
201T; first compound 0.08 µM
  relative viability: 0.637
201T; first compound 0.253 µM
  relative viability: 0.599
201T; first compound 0.8 µM
  relative viability: 0.355
201T; first compound 2.53 µM
  relative viability: 0.521
201T; first compound 8 µM
  relative viability: 0.654
NCI-H1437; first compound 0.08 µM
  relative viability: 0.435
NCI-H1437; first compound 0.253 µM
  relative viability: 0.488
NCI-H1437; first compound 0.8 µM
  relative viability: 0.401
NCI-H1437; first compound 2.53 µM
  relative viability: 0.339
NCI-H1437; first compound 8 µM
  relative viability: 0.423
CAL-12T; first compound 0.08 µM
  relative viability: 0.339
CAL-12T; first compound 0.253 µM
  relative viability: 0.415
CAL-12T; first compound 0.8 µM
  relative viability: 0.298
CAL-12T; first compound 2.53 µM
  relative viability: 0.34
CAL-12T; first compound 8 µM
  relative viability: 0.27
SW 900; first compound 0.08 µM
  relative viability: 0.503
SW 900; first compound 0.253 µM
  relative viability: 0.919
SW 900; first compound 0.8 µM
  relative viability: 0.352
SW 900; first compound 2.53 µM
  relative viability: 0.44
SW 900; first compound 8 µM
  relative viability: 0.538
NCI-H727; first compound 0.08 µM
  relative viability: 0.332
NCI-H727; first compound 0.253 µM
  relative viability: 0.438
NCI-H727; first compound 0.8 µM
  relative viability: 0.449
NCI-H727; first compound 2.53 µM
  relative viability: 0.382
NCI-H727; first compound 8 µM
  relative viability: 0.409
NCI-H460; first compound 0.08 µM
  relative viability: 0.454
NCI-H460; first compound 0.253 µM
  relative viability: 0.619
NCI-H460; first compound 0.8 µM
  relative viability: 0.436
NCI-H460; first compound 2.53 µM
  relative viability: 0.408
NCI-H460; first compound 8 µM
  relative viability: 0.55
NCI-H1650; first compound 0.08 µM
  relative viability: 0.327
NCI-H1650; first compound 0.253 µM
  relative viability: 0.339
NCI-H1650; first compound 0.8 µM
  relative viability: 0.259
NCI-H1650; first compound 2.53 µM
  relative viability: 0.241
NCI-H1650; first compound 8 µM
  relative viability: 0.267
NCI-H2170; first compound 0.08 µM
  relative viability: 0.494
NCI-H2170; first compound 0.253 µM
  relative viability: 0.571
NCI-H2170; first compound 0.8 µM
  relative viability: 0.611
NCI-H2170; first compound 2.53 µM
  relative viability: 0.477
NCI-H2170; first compound 8 µM
  relative viability: 0.564
HARA; first compound 0.08 µM
  relative viability: 0.294
HARA; first compound 0.253 µM
  relative viability: 0.31
HARA; first compound 0.8 µM
  relative viability: 0.234
HARA; first compound 2.53 µM
  relative viability: 0.241
HARA; first compound 8 µM
  relative viability: 0.377
NCI-H2009; first compound 0.08 µM
  relative viability: 0.298
NCI-H2009; first compound 0.253 µM
  relative viability: 0.301
NCI-H2009; first compound 0.8 µM
  relative viability: 0.29
NCI-H2009; first compound 2.53 µM
  relative viability: 0.235
NCI-H2009; first compound 8 µM
  relative viability: 0.254
NCI-H3122; first compound 0.08 µM
  relative viability: 0.79
NCI-H3122; first compound 0.253 µM
  relative viability: 0.787
NCI-H3122; first compound 0.8 µM
  relative viability: 0.784
NCI-H3122; first compound 2.53 µM
  relative viability: 0.828
NCI-H3122; first compound 8 µM
  relative viability: 0.929
NCI-H1666; first compound 0.08 µM
  relative viability: 0.787
NCI-H1666; first compound 0.253 µM
  relative viability: 0.781
NCI-H1666; first compound 0.8 µM
  relative viability: 0.851
NCI-H1666; first compound 2.53 µM
  relative viability: 0.768
NCI-H1666; first compound 8 µM
  relative viability: 0.789
EKVX; first compound 0.08 µM
  relative viability: 0.605
EKVX; first compound 0.253 µM
  relative viability: 0.517
EKVX; first compound 0.8 µM
  relative viability: 0.315
EKVX; first compound 2.53 µM
  relative viability: 0.501
EKVX; first compound 8 µM
  relative viability: 0.355
HCC-366; first compound 0.08 µM
  relative viability: 0.633
HCC-366; first compound 0.253 µM
  relative viability: 0.718
HCC-366; first compound 0.8 µM
  relative viability: 0.547
HCC-366; first compound 2.53 µM
  relative viability: 0.666
HCC-366; first compound 8 µM
  relative viability: 0.767
COR-L 105; first compound 0.08 µM
  relative viability: 0.311
COR-L 105; first compound 0.253 µM
  relative viability: 0.311
COR-L 105; first compound 0.8 µM
  relative viability: 0.326
COR-L 105; first compound 2.53 µM
  relative viability: 0.356
COR-L 105; first compound 8 µM
  relative viability: 0.31
LK-2; first compound 0.08 µM
  relative viability: 0.306
LK-2; first compound 0.253 µM
  relative viability: 0.252
LK-2; first compound 0.8 µM
  relative viability: 0.267
LK-2; first compound 2.53 µM
  relative viability: 0.145
LK-2; first compound 8 µM
  relative viability: 0.263
BEN; first compound 0.08 µM
  relative viability: 0.284
BEN; first compound 0.253 µM
  relative viability: 0.353
BEN; first compound 0.8 µM
  relative viability: 0.284
BEN; first compound 2.53 µM
  relative viability: 0.318
BEN; first compound 8 µM
  relative viability: 0.351
LOU-NH91; first compound 0.08 µM
  relative viability: 0.589
LOU-NH91; first compound 0.253 µM
  relative viability: 0.558
LOU-NH91; first compound 0.8 µM
  relative viability: 0.523
LOU-NH91; first compound 2.53 µM
  relative viability: 0.519
LOU-NH91; first compound 8 µM
  relative viability: 0.559
NCI-H441; first compound 0.08 µM
  relative viability: 0.599
NCI-H441; first compound 0.253 µM
  relative viability: 0.586
NCI-H441; first compound 0.8 µM
  relative viability: 0.7
NCI-H441; first compound 2.53 µM
  relative viability: 0.502
NCI-H441; first compound 8 µM
  relative viability: 0.658
PC-14; first compound 0.08 µM
  relative viability: 0.225
PC-14; first compound 0.253 µM
  relative viability: 0.217
PC-14; first compound 0.8 µM
  relative viability: 0.225
PC-14; first compound 2.53 µM
  relative viability: 0.175
PC-14; first compound 8 µM
  relative viability: 0.253
NCI-H661; first compound 0.08 µM
  relative viability: 0.779
NCI-H661; first compound 0.253 µM
  relative viability: 0.938
NCI-H661; first compound 0.8 µM
  relative viability: 0.761
NCI-H661; first compound 2.53 µM
  relative viability: 0.729
NCI-H661; first compound 8 µM
  relative viability: 0.874
